Columns and labels:
[1] = biological target: CRBN-DDB1 / GST-IRAK4 ternary complex (Homo sapiens, UniProt Q96SW2+Q9NWZ3); assay: AlphaLISA assay to determine ternary complex formation; assay type: binding
Method: The assay mixture contains 100 nM CRBN-DDB1, 100 nM GST-IRAK4, 20 μg/mL Nickle Chelate Donor Bead (Perkin Elmer Catalog # AS101D) and 20 μg/mL GSH Acceptor Bead (Perkin Elmer Catalog # AL109C) in a buffer containing 50 mM HEPES, pH 7.5, 100 mM NaCl, 0.1% BSA, 2 mM TCEP, 0.05% Tween-20. […] AlphaLISA signals (Excitation 680 nm and emission 615 nm) were recorded on a Perkin Elmer EnVision 2104 Multilabel reader. The raw data was converted to the relative amount of ternary complex formation by normalization to the signal generated by His-tagged GST protein only. The final data points were plotted and the curves were fit using non-linear regression using GraphPad Prism software.

[2] = biological target: T1, IRAK4 (Homo sapiens, UniProt Q9NWZ3); assay: OCI-LY-10 degradation assay (western blot, % IRAK4 degraded after 4 hours); assay type: cell-based; set-up: endogenous in cells; host or cells: OCI-LY10; conditions: OCI-LY10 cells, IRAK4 degraded after 4 hours, western blot
T1 sequence (Q9NWZ3 1-460): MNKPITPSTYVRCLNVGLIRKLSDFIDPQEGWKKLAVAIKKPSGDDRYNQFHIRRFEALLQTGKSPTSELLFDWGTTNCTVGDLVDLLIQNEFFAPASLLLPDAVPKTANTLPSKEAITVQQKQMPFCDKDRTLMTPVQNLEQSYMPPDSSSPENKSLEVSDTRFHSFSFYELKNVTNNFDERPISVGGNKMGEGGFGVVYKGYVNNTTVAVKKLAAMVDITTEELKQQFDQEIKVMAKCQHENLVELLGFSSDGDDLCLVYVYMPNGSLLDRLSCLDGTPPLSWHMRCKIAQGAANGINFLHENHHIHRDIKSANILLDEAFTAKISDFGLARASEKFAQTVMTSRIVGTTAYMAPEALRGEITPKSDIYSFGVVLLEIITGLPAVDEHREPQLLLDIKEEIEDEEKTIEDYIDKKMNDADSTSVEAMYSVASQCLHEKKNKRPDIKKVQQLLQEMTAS
Method in brief: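 OCI-LY10 cells (RPMI-1640, 20% FBS, 55 μM 2-ME) treated with compound at 0.003-10 μM final for 4 h at 37° C, then lysed in RIPA buffer. IRAK4 level read by fluorescent western blot (20-25 μg protein) and binned as % degraded: A >50%, B >20-50%, C <20%.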

Chain of CRBN-DDB1 / GST-IRAK4 ternary complex (Q96SW2 whole entry, one chain of several): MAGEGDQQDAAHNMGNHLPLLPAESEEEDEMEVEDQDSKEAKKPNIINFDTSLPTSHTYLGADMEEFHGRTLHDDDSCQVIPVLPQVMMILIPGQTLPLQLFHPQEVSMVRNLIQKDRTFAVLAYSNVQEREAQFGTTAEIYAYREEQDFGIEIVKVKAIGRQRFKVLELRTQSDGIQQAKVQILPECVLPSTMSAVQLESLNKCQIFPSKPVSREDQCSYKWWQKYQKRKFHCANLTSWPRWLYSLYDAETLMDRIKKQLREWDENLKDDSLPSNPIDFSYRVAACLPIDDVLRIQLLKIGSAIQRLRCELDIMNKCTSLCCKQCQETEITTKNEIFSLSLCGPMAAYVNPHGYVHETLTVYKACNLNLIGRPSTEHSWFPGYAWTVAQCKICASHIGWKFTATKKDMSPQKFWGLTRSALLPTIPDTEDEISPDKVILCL
Chain of CRBN-DDB1 / GST-IRAK4 ternary complex (Q16531 whole entry partner, one chain of several): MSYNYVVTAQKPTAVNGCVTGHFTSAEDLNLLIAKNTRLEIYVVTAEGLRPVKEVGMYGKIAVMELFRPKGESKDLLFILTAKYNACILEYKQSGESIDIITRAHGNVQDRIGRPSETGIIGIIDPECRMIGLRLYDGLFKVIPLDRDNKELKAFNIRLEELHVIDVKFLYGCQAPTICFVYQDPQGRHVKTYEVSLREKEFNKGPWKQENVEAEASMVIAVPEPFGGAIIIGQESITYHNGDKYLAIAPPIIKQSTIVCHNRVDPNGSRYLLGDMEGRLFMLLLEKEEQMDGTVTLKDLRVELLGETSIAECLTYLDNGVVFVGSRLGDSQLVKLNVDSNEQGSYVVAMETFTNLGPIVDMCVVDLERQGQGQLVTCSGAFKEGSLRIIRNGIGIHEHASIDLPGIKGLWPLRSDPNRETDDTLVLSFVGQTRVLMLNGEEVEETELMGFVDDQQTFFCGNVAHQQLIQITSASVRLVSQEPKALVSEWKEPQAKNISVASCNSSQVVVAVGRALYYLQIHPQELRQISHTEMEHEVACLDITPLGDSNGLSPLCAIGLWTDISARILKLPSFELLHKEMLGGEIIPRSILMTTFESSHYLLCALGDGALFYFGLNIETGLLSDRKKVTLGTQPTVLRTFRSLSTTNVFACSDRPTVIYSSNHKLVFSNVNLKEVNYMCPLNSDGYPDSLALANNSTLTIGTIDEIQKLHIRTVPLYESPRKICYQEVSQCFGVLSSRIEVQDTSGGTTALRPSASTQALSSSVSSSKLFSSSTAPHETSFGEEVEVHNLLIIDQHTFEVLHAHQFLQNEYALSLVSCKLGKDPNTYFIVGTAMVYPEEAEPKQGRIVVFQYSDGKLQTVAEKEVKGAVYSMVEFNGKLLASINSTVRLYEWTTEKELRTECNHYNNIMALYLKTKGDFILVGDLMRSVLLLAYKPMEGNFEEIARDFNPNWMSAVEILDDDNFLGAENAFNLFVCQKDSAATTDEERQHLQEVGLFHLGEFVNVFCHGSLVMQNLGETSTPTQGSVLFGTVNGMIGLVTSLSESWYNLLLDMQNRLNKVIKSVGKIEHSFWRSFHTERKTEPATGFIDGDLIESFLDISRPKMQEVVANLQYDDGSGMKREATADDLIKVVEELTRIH

NC(=O)c1nn(-c2cccc(C(=O)NCCOCCOCCNc3cccc4c3C(=O)N(C3CCC(=O)NC3=O)C4=O)c2)cc1NC(=O)c1coc(-c2ccnc(NCC(F)(F)F)c2)n1 (stereo not shown) [I-135]
Average % Ternary Complex (N = 2) ([1]; compound concentration 1.00E−07 M): 4.16%
Average % Ternary Complex (N = 2) ([1]; compound concentration 1.25E−08 M): 0.76%
Average % Ternary Complex (N = 2) ([1]; compound concentration 1.28E−05 M): 0.61%
Average % Ternary Complex (N = 2) ([1]; compound concentration 1.60E−06 M): 0.67%
Average % Ternary Complex (N = 2) ([1]; compound concentration 2.00E−07 M): 6.15%
Average % Ternary Complex (N = 2) ([1]; compound concentration 2.50E−08 M): 1.05%
Average % Ternary Complex (N = 2) ([1]; compound concentration 3.20E−06 M): 0.57%
Average % Ternary Complex (N = 2) ([1]; compound concentration 4.00E−07 M): 4.22%
Average % Ternary Complex (N = 2) ([1]; compound concentration 5.00E−08 M): 2.54%
Average % Ternary Complex (N = 2) ([1]; compound concentration 6.25E−09 M): 0.55%
Average % Ternary Complex (N = 2) ([1]; compound concentration 6.40E−06 M): 0.5%
Average % Ternary Complex (N = 2) ([1]; compound concentration 8.00E−07 M): 1.25%
OCI-LY10 % IRAK4 Degradation [2]: B (>20-50% degradation)

Source: patent US10874743B2, “IRAK degraders and uses thereof” (Kymera Therapeutics, Inc., priority 2017, dated 2020)
